Measured values from PMC3901262 (Investigational new drugs, 2013).

Key:
[1] = Plasma pharmacokinetics of vorinostat and metabolites; assay type: in vivo, human; conditions: for Cmax / Tmax / AUC (0-infinity) / T1/2 / AUC / Cl/F: plasma; for AUC: Mean AUC
[2] = test system: patients with advanced solid tumors; assay: Phase I dose escalation: toxicity, DLT and MTD; assay type: in vivo, human
refractory NSCLC = conditions: single agent; ref [36]; cited from earlier work
[3] = C1D1, vorinostat 400 mg oral alone (single dose)
[4] = C1D2, vorinostat 400 mg oral + bortezomib
[5] = C1D12, vorinostat 400 mg oral steady state, with bortezomib

In the case of O=C(O)CCC(=O)Nc1ccccc1 [Vorinostat acid, 4-anilino-4-oxobutanoic acid], the “mean baseline plasma concentration” value ([1]; Day 2, before vorinostat dose) is reported as 130 ± 68 ng/mL, the Cmax [1, 3] is reported as 815 ± 282 ng/mL and the Tmax [1, 3] is reported as 2.8 ± 1.4 h.
In the case of O=C(CCCCCCC(=O)Nc1ccccc1)NO[C@@H]1O[C@H](C(=O)O)[C@@H](O)[C@H](O)[C@H]1O [Vorinostat glucuronide, vorinostat glucuronide], the “AUC (0-infinity)” value [1, 3] is reported as 4843 ± 3034 ng·h/mL, the Cmax [1, 3] is reported as 1153 ± 922 ng/mL and the T1/2 [1, 3] is reported as 1.9 ± 1.4 h. The Tmax [1, 3] was 1.9 ± 1.0 h, the “AUC (0-infinity)” value [1, 4] was 5283 ± 2915 ng·h/mL and the Cmax [1, 4] was 1225 ± 496 ng/mL. For the same compound, the T1/2 [1, 4] was 1.6 ± 0.5 h, the Tmax [1, 4] was 3.2 ± 1.8 h and the “AUC (0-infinity)” value [1, 5] was 4169 ± 1548 ng·h/mL. It also gave a Cmax [1, 5] of 849 ± 479 ng/mL, a T1/2 [1, 5] of 2.0 ± 0.8 h and a Tmax [1, 5] of 2.0 ± 1.0 h.
In the case of CC(C)C[C@H](NC(=O)[C@H](Cc1ccccc1)NC(=O)c1cnccn1)B(O)O [bortezomib], the “MTD, bortezomib” value ([2]; IV days 1, 4, 8, 11 of 21-day cycle, with vorinostat 400 mg) is reported as 1.3 mg/m^2.
For O=C(CCCCCCC(=O)Nc1ccccc1)NO [vorinostat, suberoylanilide hydroxamic acid], the “AUC and Cmax in individuals experiencing a DLT compared with no DLT” value ([1]; all days of treatment, p < 0.05) was “significantly higher”, the “AUC and Cmax on day 12 compared with day 1” value ([1]; cycle 1, steady state vs single dose, p < 0.05) was “significantly higher” and the “day 1 compared with day 2 plasma concentrations (influence of bortezomib)” value ([1]; cycle 1, vorinostat alone vs vorinostat + bortezomib) was “no difference”. The Cmax ([1]; human, oral, 400 mg, Cmax, C1D1, patients with DLT (3)) was 551 ± 174 ng/mL, the AUC ([1]; human, oral, 400 mg, C1D1, patients with DLT (3)) was 1450 ± 277 ng·h/mL and the AUC ([1]; human, oral, 400 mg, C1D1, patients with No DLT (16)) was 999 ± 438 ng·h/mL. It also gave a Cmax ([1]; human, oral, Cmax, C1D2, patients with DLT (3)) of 675 ± 363 ng/mL, a Cmax ([1]; human, oral, Cmax, C1D12, patient with DLT (1)) of 905 ng/mL and a Cmax ([1]; human, oral, Cmax, C1D12, patients with No DLT (13)) of 448 ± 314 ng/mL. The AUC ([1]; human, oral, C1D2, patients with DLT (3)) was 1790 ± 436 ng·h/mL, the AUC ([1]; human, oral, C1D2, patients with No DLT (16)) was 983 ± 418 ng·h/mL and the AUC ([1]; human, oral, C1D12, patient with DLT (1)) was 2230 ng·h/mL. For the same compound, the AUC ([1]; human, oral, C1D12, patients with No DLT (13)) was 1410 ± 962 ng·h/mL, the Cl/F [1, 3] was 6.4 ± 3.2 L/min and the Cl/F [1, 4] was 11 ± 4.1 L/min. The Cl/F [1, 5] was 13 ± 3.3 L/min, the objective antitumor activity (refractory NSCLC) was “no objective antitumor activity” and the “MTD, vorinostat” value ([2]; orally daily days 1-14 of 21-day cycle, with bortezomib) was 400 mg.
